In publication PMC12285253, “Insights into genetic determinants of volatile fatty acid catabolism in Cupriavidus necator H16” (Applied and Environmental Microbiology, 2025) one finds relative activity data, which are given here for 3 molecules.

Each structure is given as a SMILES string.

One experiment concerns the target T1, H16_B1148 (Cupriavidus necator, UniProt Q0K235).
T1 construct: N-terminal hexahistidine tag, E. coli BL21(DE3) delta-patZ, Ni-NTA and SEC
T1 sequence (Q0K235 1-544): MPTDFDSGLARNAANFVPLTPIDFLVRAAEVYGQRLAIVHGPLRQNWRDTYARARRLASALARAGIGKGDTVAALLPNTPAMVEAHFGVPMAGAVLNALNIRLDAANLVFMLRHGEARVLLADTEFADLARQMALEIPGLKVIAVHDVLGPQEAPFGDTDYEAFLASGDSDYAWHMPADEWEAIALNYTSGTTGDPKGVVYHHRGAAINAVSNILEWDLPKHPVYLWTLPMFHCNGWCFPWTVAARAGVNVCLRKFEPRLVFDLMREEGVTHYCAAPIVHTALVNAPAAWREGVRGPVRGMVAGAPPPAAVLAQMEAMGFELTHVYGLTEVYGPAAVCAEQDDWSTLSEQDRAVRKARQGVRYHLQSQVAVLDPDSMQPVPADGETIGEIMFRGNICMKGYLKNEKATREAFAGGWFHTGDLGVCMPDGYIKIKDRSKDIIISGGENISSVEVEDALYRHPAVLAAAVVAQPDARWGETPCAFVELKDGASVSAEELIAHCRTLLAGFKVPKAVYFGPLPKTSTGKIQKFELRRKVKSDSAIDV
Briefly: coupled NADH assay of ATP consumption (myokinase, pyruvate kinase, lactate dehydrogenase). Format: biochemical. Particulars: 2 mM substrate, 1 mM CoA, 2.1 mM ATP, 5 mM MgCl2, pH 7.5.

The target of the next experiment is T2, H16_B1335 (Cupriavidus necator, UniProt Q0K1J9).
T2 sequence (Q0K1J9 1-562): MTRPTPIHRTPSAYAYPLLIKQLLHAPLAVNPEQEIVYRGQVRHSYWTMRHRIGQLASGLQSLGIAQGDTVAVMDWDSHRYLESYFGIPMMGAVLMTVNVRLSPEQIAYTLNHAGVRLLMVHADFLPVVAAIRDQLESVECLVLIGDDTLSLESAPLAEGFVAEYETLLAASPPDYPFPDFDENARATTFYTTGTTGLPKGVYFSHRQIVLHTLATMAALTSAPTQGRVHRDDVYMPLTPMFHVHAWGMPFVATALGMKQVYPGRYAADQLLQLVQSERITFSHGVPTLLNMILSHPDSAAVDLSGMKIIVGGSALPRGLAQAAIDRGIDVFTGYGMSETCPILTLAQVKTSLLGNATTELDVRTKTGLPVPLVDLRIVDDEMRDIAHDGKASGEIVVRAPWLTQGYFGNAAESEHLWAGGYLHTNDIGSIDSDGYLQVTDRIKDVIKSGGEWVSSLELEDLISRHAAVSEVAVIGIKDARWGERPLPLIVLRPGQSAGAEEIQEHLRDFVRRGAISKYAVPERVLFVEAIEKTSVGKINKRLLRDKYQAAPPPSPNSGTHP
Described as above. It is filed as biochemical. Particulars: 2 mM substrate, 1 mM CoA, 2.1 mM ATP, 5 mM MgCl2, pH 7.5.

Take `CCC(=O)O` [C3, propionate]: the relative activity entry on H16_B1148 is “The relative activity of H16_B1148 skewed toward shorter chain lengths”.
With `CCCCC(=O)O` [C5, valerate], the relative activity result on H16_B1335 is given as “our in vitro assay results demonstrating that H16_B1335 is also active on valerate”.
Turning to `CCCCCC(=O)O` [C6, hexanoate], the relative activity result on H16_B1335 is listed as “the relative activity of H16_B1335 skewed toward longer chain lengths”.
